Reference: PubChem BioAssay AID1963862 (Molecular Pharmacology Branch, DTP, NCI, 2024)

Tested on: KRAS patient-derived spheroids with HUVEC/MSC, viability
Assay: Anticancer human tumor 941728-121-R-J1-PDC patient-derived lung adenocarcinoma cell line growth inhibition [KRAS2]
Details: for IC50: curve of first compound; for viability, T/C: stronger effect = lower value
Method in brief: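 Combination screen of spheroid viability in tumor-cell co-cultures with endothelial (HUVEC) and mesenchymal stem cell stroma. Each agent was tested in half-log dilutions, topping at clinical Cmax or at 10 microM without a known Cmax.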

[1] = second compound 0.1 µM, first compound 0.0316 µM
[2] = second compound 0.1 µM, first compound 0.1 µM
[3] = second compound 0.1 µM, first compound 0.316 µM
[4] = second compound 0.1 µM, first compound 1 µM
[5] = second compound 0.1 µM, first compound 3.16 µM
[6] = second compound 0.1 µM, first compound 10 µM
[7] = second compound 0.316 µM, first compound 0.0316 µM
[8] = second compound 0.316 µM, first compound 0.1 µM
[9] = second compound 0.316 µM, first compound 0.316 µM
[10] = second compound 0.316 µM, first compound 1 µM
[11] = second compound 0.316 µM, first compound 3.16 µM
[12] = second compound 0.316 µM, first compound 10 µM
[13] = second compound 1 µM, first compound 0.0316 µM
[14] = second compound 1 µM, first compound 0.1 µM
[15] = second compound 1 µM, first compound 0.316 µM
[16] = second compound 1 µM, first compound 1 µM
[17] = second compound 1 µM, first compound 3.16 µM
[18] = second compound 1 µM, first compound 10 µM
[19] = second compound 3.16 µM, first compound 0.0316 µM
[20] = second compound 3.16 µM, first compound 0.1 µM
[21] = second compound 3.16 µM, first compound 0.316 µM
[22] = second compound 3.16 µM, first compound 1 µM
[23] = second compound 3.16 µM, first compound 3.16 µM
[24] = second compound 3.16 µM, first compound 10 µM
[25] = second compound 10 µM, first compound 0.0316 µM
[26] = second compound 10 µM, first compound 0.1 µM
[27] = second compound 10 µM, first compound 0.316 µM
[28] = second compound 10 µM, first compound 1 µM
[29] = second compound 10 µM, first compound 3.16 µM
[30] = second compound 10 µM, first compound 10 µM
[31] = second compound 0.1 µM, first compound 0.01 µM
[32] = second compound 0.316 µM, first compound 0.01 µM
[33] = second compound 1 µM, first compound 0.01 µM
[34] = second compound 3.16 µM, first compound 0.01 µM
[35] = second compound 10 µM, first compound 0.01 µM
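Further: spheroids exposed to agents for seven days before readout.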

CC(C)NCC(C(=O)N1CCN(c2ncnc3c2C(C)CC3O)CC1)c1ccc(Cl)cc1 (stereo not given) + CC1OCC2(CCN(c3cnc(Sc4ccnc(N)c4Cl)c(N)n3)CC2)C1N
IC50 (second compound 0.1 µM): < 31.6 nM | IC50 (second compound 0.316 µM): < 31.6 nM | IC50 (second compound 1 µM): < 31.6 nM | IC50 (second compound 3.16 µM): < 31.6 nM | IC50 (second compound 10 µM): < 31.6 nM | viability, T/C [1]: 38.3% | viability, T/C [2]: 40.1% | viability, T/C [3]: 29.9% | viability, T/C [4]: 24.9% | viability, T/C [5]: 19.1% | viability, T/C [6]: 10.4% | viability, T/C [7]: 34% | viability, T/C [8]: 31.9% | viability, T/C [9]: 25.3% | viability, T/C [10]: 20.9% | viability, T/C [11]: 15.1% | viability, T/C [12]: 8.83% | viability, T/C [13]: 26.2% | viability, T/C [14]: 26.8% | viability, T/C [15]: 23.7% | viability, T/C [16]: 16.7% | viability, T/C [17]: 12.8% | viability, T/C [18]: 4.1% | viability, T/C [19]: 25.8% | viability, T/C [20]: 22.1% | viability, T/C [21]: 20.8% | viability, T/C [22]: 14.3% | viability, T/C [23]: 10.7% | viability, T/C [24]: 3.56% | viability, T/C [25]: 19.1% | viability, T/C [26]: 17.9% | viability, T/C [27]: 17.2% | viability, T/C [28]: 11.2% | viability, T/C [29]: 4.83% | viability, T/C [30]: 1.91%

CC1COCCN1c1cc(-c2ccnn2C)c2ccnc(-c3ccn[nH]3)c2n1 (stereo not given) + CC1OCC2(CCN(c3cnc(Sc4ccnc(N)c4Cl)c(N)n3)CC2)C1N
IC50 (second compound 0.1 µM): < 10 nM | IC50 (second compound 0.316 µM): < 10 nM | IC50 (second compound 1 µM): < 10 nM | IC50 (second compound 3.16 µM): < 10 nM | IC50 (second compound 10 µM): < 10 nM | viability, T/C [31]: 43.9% | viability, T/C [1]: 28.7% | viability, T/C [2]: 27.2% | viability, T/C [3]: 26.4% | viability, T/C [4]: 25.4% | viability, T/C [5]: 28.2% | viability, T/C [32]: 32.9% | viability, T/C [7]: 30.4% | viability, T/C [8]: 25.3% | viability, T/C [9]: 23.1% | viability, T/C [10]: 19.9% | viability, T/C [11]: 21.6% | viability, T/C [33]: 29.5% | viability, T/C [13]: 26.9% | viability, T/C [14]: 26.5% | viability, T/C [15]: 22.3% | viability, T/C [16]: 15.8% | viability, T/C [17]: 15.8% | viability, T/C [34]: 26.8% | viability, T/C [19]: 25.3% | viability, T/C [20]: 22.4% | viability, T/C [21]: 18.8% | viability, T/C [22]: 15.9% | viability, T/C [23]: 13.7% | viability, T/C [35]: 25.4% | viability, T/C [25]: 22.9% | viability, T/C [26]: 19.2% | viability, T/C [27]: 14.4% | viability, T/C [28]: 12.9% | viability, T/C [29]: 10.9%

CCN1CCN(Cc2ccc(Nc3ncc(F)c(-c4cc(F)c5nc(C)n(C(C)C)c5c4)n3)nc2)CC1 + CC1OCC2(CCN(c3cnc(Sc4ccnc(N)c4Cl)c(N)n3)CC2)C1N
IC50 (second compound 0.1 µM): < 3.16 nM | IC50 (second compound 0.316 µM): < 3.16 nM | IC50 (second compound 1 µM): < 3.16 nM | IC50 (second compound 3.16 µM): < 3.16 nM | IC50 (second compound 10 µM): < 3.16 nM | viability, T/C (second compound 0.1 µM, first compound 0.00316 µM): 47.5% | viability, T/C [31]: 40.5% | viability, T/C [1]: 36.2% | viability, T/C [2]: 35.9% | viability, T/C [3]: 37.5% | viability, T/C [4]: 44.4% | viability, T/C (second compound 0.316 µM, first compound 0.00316 µM): 35.3% | viability, T/C [32]: 31.2% | viability, T/C [7]: 30.5% | viability, T/C [8]: 31.7% | viability, T/C [9]: 24.3% | viability, T/C [10]: 26% | viability, T/C (second compound 1 µM, first compound 0.00316 µM): 32.5% | viability, T/C [33]: 29.4% | viability, T/C [13]: 29.1% | viability, T/C [14]: 28.5% | viability, T/C [15]: 23.1% | viability, T/C [16]: 17.5% | viability, T/C (second compound 3.16 µM, first compound 0.00316 µM): 25.8% | viability, T/C [34]: 25.4% | viability, T/C [19]: 24.2% | viability, T/C [20]: 24.4% | viability, T/C [21]: 16.5% | viability, T/C [22]: 13.5% | viability, T/C (second compound 10 µM, first compound 0.00316 µM): 22.9% | viability, T/C [35]: 22.7% | viability, T/C [25]: 19.6% | viability, T/C [26]: 15.6% | viability, T/C [27]: 9.09% | viability, T/C [28]: 9.79%

CCNC(=O)CC1N=C(c2ccc(Cl)cc2)c2cc(OC)ccc2-n2c(C)nnc21 (stereo not given) + CC1OCC2(CCN(c3cnc(Sc4ccnc(N)c4Cl)c(N)n3)CC2)C1N
IC50 (second compound 0.1 µM): < 31.6 nM | IC50 (second compound 0.316 µM): < 31.6 nM | IC50 (second compound 1 µM): < 31.6 nM | IC50 (second compound 3.16 µM): < 31.6 nM | IC50 (second compound 10 µM): < 31.6 nM | viability, T/C [1]: 45.2% | viability, T/C [2]: 44% | viability, T/C [3]: 31.5% | viability, T/C [4]: 24.1% | viability, T/C [5]: 21% | viability, T/C [6]: 22.4% | viability, T/C [7]: 37.2% | viability, T/C [8]: 32.5% | viability, T/C [9]: 25.5% | viability, T/C [10]: 17.2% | viability, T/C [11]: 14.8% | viability, T/C [12]: 16.2% | viability, T/C [13]: 32.3% | viability, T/C [14]: 27.5% | viability, T/C [15]: 30.4% | viability, T/C [16]: 13.2% | viability, T/C [17]: 10.3% | viability, T/C [18]: 8.97% | viability, T/C [19]: 25.7% | viability, T/C [20]: 20.9% | viability, T/C [21]: 17.8% | viability, T/C [22]: 10.3% | viability, T/C [23]: 8.12% | viability, T/C [24]: 6.43% | viability, T/C [25]: 22.3% | viability, T/C [26]: 19.1% | viability, T/C [27]: 12% | viability, T/C [28]: 6.42% | viability, T/C [29]: 4.77% | viability, T/C [30]: 4.55%
